Patent US20230117034A1, “PYRAZOLOTRIAZINES” (Bayer Aktiengesellschaft, priority 2019, published 2023)

Columns and labels:
Format in all cases: cell-based
[1] = system: MDA-MB-231, human breast cancer cells; assay: Proliferation assay MDA-MB-231 (crystal violet, 4 days); conditions: Homo sapiens, MDA-MB-231, 96 h, MDA-MB-231 cells, median, read-out: Prolif-MDA MB-231, IC50-[mol/l] (median)
Procedure, shortened: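 CAL-120 or MDA-MB-231 cells grown 24 h, then exposed 4 days to compound (0.01–10 micromol/L, 0.1% DMSO). Crystal violet staining, absorbance at 595 nm, normalised to a zero-point plate (0%) and untreated cells (100%); IC50 by 4-parameter fit.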

[2] = biological target: T1, CDK12 (nuclear staining in CAL-120 cells) (Homo sapiens, UniProt Q9NYV4); assay: CDK12 nuclear protein level: immunofluorescence/high content analysis (CAL-120); conditions: for DC50: CAL-120 cells, 24 h, immunofluorescence, 50% reduction of nuclear CDK12 staining intensity, median, read-out: CDK12 degradation IF, DC50- [mol/l] (median); for (IC50 CDK12 high ATP) to (Degradation DC50 CDK12) ratio: ratio of IC50 CDK12 high ATP kinase assay to DC50 CDK12 degradation (IF, CAL-120)
T1 construct: endogenous in cells; host or cells: CAL-120 human breast cancer cells (DSMZ ACC 459)
T1 sequence (Q9NYV4 whole entry): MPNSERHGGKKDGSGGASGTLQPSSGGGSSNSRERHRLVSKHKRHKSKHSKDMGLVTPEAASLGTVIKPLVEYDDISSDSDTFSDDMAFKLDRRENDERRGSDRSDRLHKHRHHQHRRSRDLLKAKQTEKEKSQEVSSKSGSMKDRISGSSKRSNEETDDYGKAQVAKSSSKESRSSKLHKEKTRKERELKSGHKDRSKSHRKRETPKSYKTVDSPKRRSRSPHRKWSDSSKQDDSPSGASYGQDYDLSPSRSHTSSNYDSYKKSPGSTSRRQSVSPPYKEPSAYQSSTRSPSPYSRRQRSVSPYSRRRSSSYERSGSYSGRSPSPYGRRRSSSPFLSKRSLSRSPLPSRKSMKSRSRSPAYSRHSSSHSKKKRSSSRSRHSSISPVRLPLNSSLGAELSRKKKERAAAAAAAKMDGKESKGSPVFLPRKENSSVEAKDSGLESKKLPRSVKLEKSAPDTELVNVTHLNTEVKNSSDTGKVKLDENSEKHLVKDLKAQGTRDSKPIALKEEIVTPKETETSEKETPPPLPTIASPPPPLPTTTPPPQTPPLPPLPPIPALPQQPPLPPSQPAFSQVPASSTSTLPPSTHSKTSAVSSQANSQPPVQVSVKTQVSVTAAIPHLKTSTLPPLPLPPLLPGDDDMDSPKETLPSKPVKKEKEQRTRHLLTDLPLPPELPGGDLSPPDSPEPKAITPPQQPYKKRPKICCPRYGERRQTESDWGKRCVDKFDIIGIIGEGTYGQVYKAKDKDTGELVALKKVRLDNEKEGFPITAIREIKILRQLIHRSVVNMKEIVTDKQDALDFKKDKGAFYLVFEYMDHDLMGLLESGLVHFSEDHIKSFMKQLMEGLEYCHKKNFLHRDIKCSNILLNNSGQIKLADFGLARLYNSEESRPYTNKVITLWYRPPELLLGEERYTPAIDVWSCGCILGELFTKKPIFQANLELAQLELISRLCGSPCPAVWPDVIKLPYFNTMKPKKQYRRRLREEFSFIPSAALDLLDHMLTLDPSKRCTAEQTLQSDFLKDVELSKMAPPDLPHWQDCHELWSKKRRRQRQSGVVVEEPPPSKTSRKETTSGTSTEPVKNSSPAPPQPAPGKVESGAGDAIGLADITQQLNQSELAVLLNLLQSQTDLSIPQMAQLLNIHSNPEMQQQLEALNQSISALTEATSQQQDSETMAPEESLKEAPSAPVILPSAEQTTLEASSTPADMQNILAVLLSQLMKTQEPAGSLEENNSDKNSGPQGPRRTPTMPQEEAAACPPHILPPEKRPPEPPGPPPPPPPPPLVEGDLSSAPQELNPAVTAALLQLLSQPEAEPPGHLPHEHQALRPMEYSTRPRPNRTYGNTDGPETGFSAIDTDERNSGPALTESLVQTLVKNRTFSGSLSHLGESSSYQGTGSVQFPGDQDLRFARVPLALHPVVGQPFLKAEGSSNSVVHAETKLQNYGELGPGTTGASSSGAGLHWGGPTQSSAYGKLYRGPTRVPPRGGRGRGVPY
T1 sequence (O75909 whole entry partner): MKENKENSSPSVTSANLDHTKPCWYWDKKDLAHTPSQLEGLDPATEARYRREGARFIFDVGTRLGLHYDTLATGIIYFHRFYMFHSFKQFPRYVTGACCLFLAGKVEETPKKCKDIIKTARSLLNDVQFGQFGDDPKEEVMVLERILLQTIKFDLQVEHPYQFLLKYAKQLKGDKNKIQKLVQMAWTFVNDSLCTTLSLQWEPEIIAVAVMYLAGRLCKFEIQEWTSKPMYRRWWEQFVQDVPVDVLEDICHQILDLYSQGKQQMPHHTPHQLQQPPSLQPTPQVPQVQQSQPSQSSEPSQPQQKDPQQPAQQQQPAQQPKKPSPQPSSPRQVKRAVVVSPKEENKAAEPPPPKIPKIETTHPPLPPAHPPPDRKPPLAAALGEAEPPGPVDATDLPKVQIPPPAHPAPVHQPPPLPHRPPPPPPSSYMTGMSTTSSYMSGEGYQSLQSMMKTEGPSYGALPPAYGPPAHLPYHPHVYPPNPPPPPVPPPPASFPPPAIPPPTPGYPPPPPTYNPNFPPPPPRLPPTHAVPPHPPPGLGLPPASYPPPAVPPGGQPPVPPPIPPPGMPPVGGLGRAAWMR
Procedure, shortened: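 CAL-120 cells were treated with compound for 24 h at 37 °C, fixed with PFA and immunostained for CDK12. Nuclear CDK12 intensity was quantified by automated image analysis and normalized to DMSO and control. DC50 is the concentration giving 50% reduction of nuclear staining.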

[3] = biological target: T2, CYCLIN K (nuclear staining in CAL-120 cells) (Homo sapiens, UniProt O75909); assay: CYCLIN K nuclear protein level: immunofluorescence high content analysis (CAL-120); conditions: 24 h, 50% reduction of nuclear CCNK staining intensity, median, read-out: CYCLIN K degradation IF, DC50-[mol/l] (median)
T2 construct: endogenous in cells; host or cells: CAL-120 human breast cancer cells (DSMZ ACC 459)
T2 sequence (O75909 whole entry): as the sequence (O75909 whole entry partner) above
T2 sequence (Q9NYV4 whole entry partner): as the sequence (Q9NYV4 whole entry) above
Procedure, shortened: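 CAL-120 breast cancer cells treated in dose-response for 24 h at 37 °C, PFA-fixed and immunostained for cyclin K with Hoechst counterstain. Confocal imaging quantified nuclear intensity; DC50 is the concentration giving 50% reduction of nuclear CCNK staining, normalized to DMSO and control.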

| SMILES | IC50 [1] [nM] | DC50 [2] [nM] | (IC50 CDK12 high ATP) to (Degradation DC50 CDK12) ratio [2] | DC50 [3] [nM] |
| --- | --- | --- | --- | --- |
| Brc1cnn2c(NCc3nc4ccccc4[nH]3)nc(N3C[C@H]4C[C@@H]3CN4)nc12 [Example 269, N-[(1H-benzimidazol-2-yl)methyl]-8-bromo-2-[(1R,4R)-2,5-diazabicyclo[2.2.1]heptan-2-yl]pyrazolo[1,5-a][1,3,5]triazin-4-amine] | 29.3 | 3.33 | 2588 | 0.324 |
| Cc1cc2nc(CNc3nc(N4CCN(C)CC4)nc4c(C5CC5)cnn34)[nH]c2cc1C [Example 312, 8-cyclopropyl-N-[(5,6-dimethyl-1H-benzimidazol-2-yl)methyl]-2-(4-methylpiperazin-1-yl)pyrazolo[1,5-a][1,3,5]triazin-4-amine] | 3.21 | 3.9 | 2616 | 0.518 |
| CN1CCN(c2nc(NCc3nc4c(F)cccc4[nH]3)n3ncc(C(F)(F)F)c3n2)CC1 [Example 293, N-[(4-fluoro-1H-benzimidazol-2-yl)methyl]-2-(4-methylpiperazin-1-yl)-8-(trifluoromethyl)pyrazolo[1,5-a][1,3,5]triazin-4-amine] | 36.1 | 1.71 | 3446 | 0.385 |
| Fc1ccc2[nH]c(CNc3nc(N4CC5CCC(C4)N5)nc4c(C(F)(F)F)cnn34)nc2c1F [Example 310, 2-(3,8-diazabicyclo[3.2.1]octan-3-yl)-N-[(4,5-difluoro-1H-benzimidazol-2-yl)methyl]-8-(trifluoromethyl)pyrazolo[1,5-a][1,3,5]triazin-4-amine] | 3.48 | 17.3 | 75 | 0.29 |
| Brc1cnn2c(NCc3nc4ccccc4[nH]3)nc(N3C[C@@H]4C[C@H]3CN4)nc12 [Example 270, N-[(1H-benzimidazol-2-yl)methyl]-8-bromo-2-[(1S,4S)-2,5-diazabicyclo[2.2.1]heptan-2-yl]pyrazolo[1,5-a][1,3,5]triazin-4-amine] | 22.5 | 1.71 | 8023 | 0.19 |
| CN(CC(C)(C)O)c1nc(NCc2nc3cc(Cl)c(Cl)cc3[nH]2)n2ncc(C3CC3)c2n1 [Example 306, 1-[(8-cyclopropyl-4-{[(5,6-dichloro-1H-benzimidazol-2-yl)methyl]amino}pyrazolo[1,5-a][1,3,5]triazin-2-yl)(methyl)amino]-2-methylpropan-2-ol] | 7.83 | 12.7 | 146 | 0.642 |
| Fc1ccc2[nH]c(CNc3nc(N4C[C@H]5CC[C@@H](C4)N5)nc4c(C5CC5)cnn34)nc2c1F [Example 294, 8-cyclopropyl-2-[(1R,5S)-3,8-diazabicyclo[3.2.1]octan-3-yl]-N-[(4,5-difluoro-1H-benzimidazol-2-yl)methyl]pyrazolo[1,5-a][1,3,5]triazin-4-amine] | 3.37 | 2.73 | 684 | 0.56 |

The remaining lines, values ahead:

| IC50 [1] [nM] | DC50 [2] [nM] | (IC50 CDK12 high ATP) to (Degradation DC50 CDK12) ratio [2] | DC50 [3] [nM] | SMILES |
| --- | --- | --- | --- | --- |
| 306 | 40.3 | >419 | 20.8 | C[C@@]1(O)CCN(c2nc(NCc3nc4ccccc4[nH]3)n3ncc(Br)c3n2)C1 (single isomer, unassigned) [Example 281, (3R or S)-1-(4-{[(1H-benzimidazol-2-yl)methyl]amino}-8-bromopyrazolo[1,5-a][1,3,5]triazin-2-yl)-3-methylpyrrolidin-3-ol] |
| 27.9 | 4.93 | 1297 | 1.02 | Fc1ccc2[nH]c(CNc3nc(N4CCOCC4)nc4c(CC(F)(F)F)cnn34)nc2c1 [Example 308, N-[(5-fluoro-1H-benzimidazol-2-yl)methyl]-2-(morpholin-4-yl)-8-(2,2,2-trifluoroethyl)pyrazolo[1,5-a][1,3,5]triazin-4-amine] |
| 181 | 8.47 | >2361 | 4.17 | c1ccc2[nH]c(CNc3nc(N4C[C@@H]5C[C@H]4CO5)nc4c(C5CC5)cnn34)nc2c1 [Example 254, N-[(1H-benzimidazol-2-yl)methyl]-8-cyclopropyl-2-[(1S,4S)-2-oxa-5-azabicyclo[2.2.1]heptan-5-yl]pyrazolo[1,5-a][1,3,5]triazin-4-amine] |
| 88 | 33.9 | >581 | 2.15 | Fc1ccc2[nH]c(CNc3nc(N4CCOCC4)nc4c([C@@H]5CC5(F)F)cnn34)nc2c1 (single isomer, unassigned) [Example 315, 8-[(1R or S)-2,2-difluorocyclopropyl]-N-[(5-fluoro-1H-benzimidazol-2-yl)methyl]-2-(morpholin-4-yl)pyrazolo[1,5-a][1,3,5]triazin-4-amine] |
| 501 | 101 | – | 15.6 | c1ccc2[nH]c(CNc3nc(N4CCOCC4)nc4c(C5CCCC5)cnn34)nc2c1 [Example 244, N-[(1H-benzimidazol-2-yl)methyl]-8-cyclopentyl-2-(morpholin-4-yl)pyrazolo[1,5-a][1,3,5]triazin-4-amine] |
| 6.31 | 8.53 | >2346 | 0.914 | CN1CCN(c2nc(NCc3nc4cc(F)c(Cl)cc4[nH]3)n3ncc(C4CC4)c3n2)CC1 [Example 309, N-[(6-chloro-5-fluoro-1H-benzimidazol-2-yl)methyl]-8-cyclopropyl-2-(4-methylpiperazin-1-yl)pyrazolo[1,5-a][1,3,5]triazin-4-amine] |
| 32.8 | 0.875 | >22856 | 1.82 | CN[C@@H]1CCN(c2nc(NCc3nc4ccccc4[nH]3)n3ncc(Br)c3n2)C1 [Example 253, N-[(1H-benzimidazol-2-yl)methyl]-8-bromo-2-[(3R)-3-(methylamino)pyrrolidin-1-yl]pyrazolo[1,5-a][1,3,5]triazin-4-amine] |
| 50.7 | 1.38 | 10678 | 0.933 | c1ccc2[nH]c(CNc3nc(N4CCNCC4)nc4c(C5CC5)cnn34)nc2c1 [Example 247, N-[(1H-benzimidazol-2-yl)methyl]-8-cyclopropyl-2-(piperazin-1-yl)pyrazolo[1,5-a][1,3,5]triazin-4-amine] |
| 17.4 | 1.18 | 2070 | 0.728 | Fc1ccc2[nH]c(CNc3nc(N4CCOCC4)nc4c(C5CC5(F)F)cnn34)nc2c1F (stereo not drawn) [Example 278, N-[(4,5-difluoro-1H-benzimidazol-2-yl)methyl]-8-(2,2-difluorocyclopropyl)-2-(morpholin-4-yl)pyrazolo[1,5-a][1,3,5]triazin-4-amine] |
